Data taken from patent US20020137929A1, “1 - (3-heterocyclylphenyl) isothiourea, -isourea, -guanidine and -amidine herbicidal agents” (Intellectual Property Department, BASF Aktiengesellschaft, priority 1998, published 2002).

Tests used:
ABUTH (Velvetleaf) = assay: Postemergence herbicidal evaluation; format: in vivo, Abutilon theophrasti; settings: postemergence
Procedure, shortened: (§1)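 Seedlings grown about two weeks were sprayed at 40 psi with compound dispersed in 50/50 acetone/water plus 0.5% TWEEN 20, at about 0.0156 to 0.500 kg/ha. Plants were kept in the greenhouse and scored 4–5 weeks later on a 0–9 visual scale against untreated controls.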

ORYSAT (Rice, Tebonnet) = assay: Preemergence herbicidal evaluation; format: in vivo, Oryza sativa, (L.) Tebonnet; settings: rated 4-5 weeks after treatment, rating scale 0-9
Procedure, shortened: (§2)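 Scores use a 0–9 visual scale covering stand, vigor, malformation, size and chlorosis relative to controls, rated four to five weeks after treatment. Before emergence, soil-planted seeds were sprayed with compound in aqueous acetone at roughly 0.0156–0.500 kg/ha and held in the greenhouse.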

ECHCG (Barnyardgrass) = assay: Preemergence herbicidal evaluation; format: in vivo, Echinochloa crus-galli; settings: rated 4-5 weeks after treatment, rating scale 0-9
Procedure, shortened: as §2

SETVI (Foxtail, Green) = assay: Preemergence herbicidal evaluation; format: in vivo, Setaria viridis; settings: rated 4-5 weeks after treatment, rating scale 0-9
Procedure, shortened: as §2

[1] = test system: TRZAWR (Wheat, Winter, cv Riband); assay: Postemergence herbicidal evaluation; format: in vivo, Triticum aestivum; settings: postemergence
Procedure, shortened: as §1

MOOVA (Monochoria) = assay: Preemergence weed control under flooded paddy conditions; format: in vivo, Monochoria vaginalis; settings: rated 3-4 weeks after treatment
Procedure, shortened: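 Seeds or propagules sown in top 0.5 cm of silt loam soil, flooded 1.5 to 3 cm above surface throughout. Compound in 50/50 v/v aqueous/acetone pipetted into flood water at about 0.0313 to 0.500 kg/ha. Visual 0-9 rating versus control after three to four weeks in greenhouse.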

[2] = test system: IPOHE (Morningglory, Ivyleaf); assay: Preemergence herbicidal evaluation; format: in vivo, Ipomoea hederacea; settings: rated 4-5 weeks after treatment, rating scale 0-9
Procedure, shortened: as §2

[3] = test system: ECHORC (Watergrass (Calif.)); assay: Preemergence weed control under flooded paddy conditions; format: in vivo, Echinochloa oryzoides; settings: rated 3-4 weeks after treatment
Procedure, shortened: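 First, seeds or propagules go into the top 0.5 cm of silt loam; next, water is held 1.5 to 3 cm over the soil; then compound (50/50 acetone/water) is pipetted into it at about 0.0313 to 0.500 kg/ha; finally plants are rated visually 0-9 after three to four weeks.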

[4] = test system: IPOHE (Morningglory, Ivyleaf); assay: Postemergence herbicidal evaluation; format: in vivo, Ipomoea hederacea; settings: postemergence
Procedure, shortened: as §1

[5] = test system: TRZAWR (Wheat, Winter, cv Riband); assay: Preemergence herbicidal evaluation; format: in vivo, Triticum aestivum; settings: rated 4-5 weeks after treatment, rating scale 0-9
Procedure, shortened: as §2

[6] = test system: CHEAL (Lambsquarters, Common); assay: Preemergence herbicidal evaluation; format: in vivo, Chenopodium album; settings: rated 4-5 weeks after treatment, rating scale 0-9
Procedure, shortened: as §2

`Cn1c(C(F)(F)F)cc(=O)n(-c2cc(N=C3SCC(=O)N3Cc3ccc(F)cc3)c(Cl)cc2F)c1=O` [Compound 151, 3-{4-Chloro-2-fluoro-5-{[3-(p-fluorobenzyl)-4-oxo-2-thiazolidinylidene]amino}phenyl}-1-methyl-6-(trifluoromethyl)-2,4(1H,3H)-pyrimidinedione] was tested, and the “Herbicidal rating ABUTH” value (ABUTH (Velvetleaf); rate 0.0156 kg/ha) was 9.0, the “Herbicidal rating ABUTH” value (ABUTH (Velvetleaf); rate 0.0313 kg/ha) was 9.0 and the “Herbicidal rating ABUTH” value (ABUTH (Velvetleaf); rate 0.0625 kg/ha) was 9.0. For the same molecule, the “Preemergence herbicidal rating ORYSAT” value (ORYSAT (Rice, Tebonnet); rate 0.0156 kg/ha) was 2.0, the “Preemergence herbicidal rating ORYSAT” value (ORYSAT (Rice, Tebonnet); rate 0.0313 kg/ha) was 5.0 and the “Preemergence herbicidal rating ORYSAT” value (ORYSAT (Rice, Tebonnet); rate 0.0625 kg/ha) was 5.0. The “Preemergence herbicidal rating ORYSAT” value (ORYSAT (Rice, Tebonnet); rate 0.1250 kg/ha) was 9.0, the “Preemergence herbicidal rating ORYSAT” value (ORYSAT (Rice, Tebonnet); rate 0.2500 kg/ha) was 9.0 and the “Preemergence herbicidal rating ECHCG” value (ECHCG (Barnyardgrass); rate 0.0156 kg/ha) was 2.0. The “Preemergence herbicidal rating ECHCG” value (ECHCG (Barnyardgrass); rate 0.0313 kg/ha) was 9.0, the “Preemergence herbicidal rating ECHCG” value (ECHCG (Barnyardgrass); rate 0.0625 kg/ha) was 7.0 and the “Preemergence herbicidal rating ECHCG” value (ECHCG (Barnyardgrass); rate 0.1250 kg/ha) was 9.0. For the same molecule, the “Preemergence herbicidal rating ECHCG” value (ECHCG (Barnyardgrass); rate 0.2500 kg/ha) was 9.0, the “Preemergence herbicidal rating SETVI” value (SETVI (Foxtail, Green); rate 0.0156 kg/ha) was 9.0 and the “Preemergence herbicidal rating SETVI” value (SETVI (Foxtail, Green); rate 0.0313 kg/ha) was 9.0. The “Preemergence herbicidal rating SETVI” value (SETVI (Foxtail, Green); rate 0.0625 kg/ha) was 9.0, the “Preemergence herbicidal rating SETVI” value (SETVI (Foxtail, Green); rate 0.1250 kg/ha) was 9.0 and the “Preemergence herbicidal rating SETVI” value (SETVI (Foxtail, Green); rate 0.2500 kg/ha) was 9.0. The “Herbicidal rating TRZAWR” value ([1]; rate 0.0156 kg/ha) was 2.5, the “Herbicidal rating TRZAWR” value ([1]; rate 0.0313 kg/ha) was 2.5 and the “Herbicidal rating TRZAWR” value ([1]; rate 0.0625 kg/ha) was 4.0. The “herbicidal effect rating, MOOVA” value (MOOVA (Monochoria); 0.0313 kg/ha) was 6.0, the “herbicidal effect rating, MOOVA” value (MOOVA (Monochoria); 0.0625 kg/ha) was 9.0 and the “herbicidal effect rating, MOOVA” value (MOOVA (Monochoria); 0.1250 kg/ha) was 9.0. The “herbicidal effect rating, MOOVA” value (MOOVA (Monochoria); 0.2500 kg/ha) was 9.0, the “Preemergence herbicidal rating IPOHE” value ([2]; rate 0.0156 kg/ha) was 4.0 and the “Preemergence herbicidal rating IPOHE” value ([2]; rate 0.0313 kg/ha) was 9.0. For the same molecule, the “Preemergence herbicidal rating IPOHE” value ([2]; rate 0.0625 kg/ha) was 9.0, the “Preemergence herbicidal rating IPOHE” value ([2]; rate 0.1250 kg/ha) was 9.0 and the “Preemergence herbicidal rating IPOHE” value ([2]; rate 0.2500 kg/ha) was 9.0. The “herbicidal effect rating, ECHORC” value ([3]; 0.0313 kg/ha) was 3.0, the “herbicidal effect rating, ECHORC” value ([3]; 0.0625 kg/ha) was 5.0 and the “herbicidal effect rating, ECHORC” value ([3]; 0.1250 kg/ha) was 9.0. For the same molecule, the “herbicidal effect rating, ECHORC” value ([3]; 0.2500 kg/ha) was 9.0, the “Herbicidal rating IPOHE” value ([4]; rate 0.0156 kg/ha) was 9.0 and the “Herbicidal rating IPOHE” value ([4]; rate 0.0313 kg/ha) was 9.0. The “Herbicidal rating IPOHE” value ([4]; rate 0.0625 kg/ha) was 9.0, the “Preemergence herbicidal rating TRZAWR” value ([5]; rate 0.0156 kg/ha) was 2.0 and the “Preemergence herbicidal rating TRZAWR” value ([5]; rate 0.0313 kg/ha) was 6.0. The “Preemergence herbicidal rating TRZAWR” value ([5]; rate 0.0625 kg/ha) was 5.0, the “Preemergence herbicidal rating TRZAWR” value ([5]; rate 0.1250 kg/ha) was 8.0 and the “Preemergence herbicidal rating TRZAWR” value ([5]; rate 0.2500 kg/ha) was 9.0. The “Preemergence herbicidal rating CHEAL” value ([6]; rate 0.0156 kg/ha) was 9.0, the “Preemergence herbicidal rating CHEAL” value ([6]; rate 0.0313 kg/ha) was 9.0 and the “Preemergence herbicidal rating CHEAL” value ([6]; rate 0.0625 kg/ha) was 9.0. The “Preemergence herbicidal rating CHEAL” value ([6]; rate 0.1250 kg/ha) was 9.0 and the “Preemergence herbicidal rating CHEAL” value ([6]; rate 0.2500 kg/ha) was 9.0.

For `CCOC(=O)CN1C(=O)C(Br)SC1=Nc1cc(-n2c(=O)cc(C(F)(F)F)n(C)c2=O)c(F)cc1Cl` (centres unmarked) [Compound 153, Ethyl 5-bromo-2-[{2-chloro-5-[3,6-dihydro-3-methyl-2,6-dioxo-4-(trifluoromethyl)-1(2H)-pyrimidinyl]-4-fluorophenyl}imino}-4-oxo-3-thiazolidineacetate], the “Herbicidal rating ABUTH” value (ABUTH (Velvetleaf); rate 0.0156 kg/ha) was 1.0, the “Herbicidal rating ABUTH” value (ABUTH (Velvetleaf); rate 0.0313 kg/ha) was 1.0 and the “Herbicidal rating ABUTH” value (ABUTH (Velvetleaf); rate 0.0625 kg/ha) was 5.0. The “Preemergence herbicidal rating ORYSAT” value (ORYSAT (Rice, Tebonnet); rate 0.1250 kg/ha) was 0.0, the “Preemergence herbicidal rating ORYSAT” value (ORYSAT (Rice, Tebonnet); rate 0.2500 kg/ha) was 0.0 and the “Preemergence herbicidal rating ECHCG” value (ECHCG (Barnyardgrass); rate 0.1250 kg/ha) was 0.0. The “Preemergence herbicidal rating ECHCG” value (ECHCG (Barnyardgrass); rate 0.2500 kg/ha) was 0.0, the “Preemergence herbicidal rating SETVI” value (SETVI (Foxtail, Green); rate 0.1250 kg/ha) was 1.0 and the “Preemergence herbicidal rating SETVI” value (SETVI (Foxtail, Green); rate 0.2500 kg/ha) was 0.0. The “Herbicidal rating TRZAWR” value ([1]; rate 0.0156 kg/ha) was 2.0, the “Herbicidal rating TRZAWR” value ([1]; rate 0.0313 kg/ha) was 2.0 and the “Herbicidal rating TRZAWR” value ([1]; rate 0.0625 kg/ha) was 3.0. The “herbicidal effect rating, MOOVA” value (MOOVA (Monochoria); 0.0625 kg/ha) was 3.0, the “herbicidal effect rating, MOOVA” value (MOOVA (Monochoria); 0.1250 kg/ha) was 4.0 and the “herbicidal effect rating, MOOVA” value (MOOVA (Monochoria); 0.2500 kg/ha) was 5.0. The “Preemergence herbicidal rating IPOHE” value ([2]; rate 0.1250 kg/ha) was 1.0, the “Preemergence herbicidal rating IPOHE” value ([2]; rate 0.2500 kg/ha) was 0.0 and the “herbicidal effect rating, ECHORC” value ([3]; 0.0625 kg/ha) was 0.0. The “herbicidal effect rating, ECHORC” value ([3]; 0.1250 kg/ha) was 0.0, the “herbicidal effect rating, ECHORC” value ([3]; 0.2500 kg/ha) was 0.0 and the “Herbicidal rating IPOHE” value ([4]; rate 0.0156 kg/ha) was 4.0. For the same molecule, the “Herbicidal rating IPOHE” value ([4]; rate 0.0313 kg/ha) was 6.0, the “Herbicidal rating IPOHE” value ([4]; rate 0.0625 kg/ha) was 9.0 and the “Preemergence herbicidal rating TRZAWR” value ([5]; rate 0.1250 kg/ha) was 0.0. For the same molecule, the “Preemergence herbicidal rating TRZAWR” value ([5]; rate 0.2500 kg/ha) was 0.0, the “Preemergence herbicidal rating CHEAL” value ([6]; rate 0.1250 kg/ha) was 1.0 and the “Preemergence herbicidal rating CHEAL” value ([6]; rate 0.2500 kg/ha) was 7.0.
